Where two headings read alike, the source gives them in different places. Marks after values point to notes of the source that are not given here.
How the values were obtained:
[1] = tested on: ovalbumin-induced asthma Balb/c mice; experiment: Airway hyperresponsiveness (Pehn, plethysmography) in ovalbumin-induced asthma model; assay type: in vivo, mouse
Protocol: (§1) 6-week-old female SPF (specific pathogen-free) Balb/c mice (average weight: 20 g) were purchased from Samtako (Korea). The animals were sufficiently fed with solid feed (antibiotic-free, Samyang Feed Co.) and water until the start point of the experiment, and acclimated at a temperature of 22±2° C., a humidity of 55±15%, and a 12-hr light/12-hr dark cycle for 1 week, and then used in experiments. After 1 week of the acclimation period as described above, the mice were sensitized by intraperitoneal administration of a suspension of 2 mg of aluminum oxide (A8222, Sigma-Aldrich, MO, USA) and 20 μg of ovalbumin (A5503, Sigma-Aldrich) in 200 μl of phosphate buffered saline at two-week intervals. During a period from day 21 to day 23 after the first intraperitoneal administration of ovalbumin, 1% ovalbumin was inhaled into the mice for 30 minutes using an ultrasonic nebulizer (NE-U12, Omron Corp., Japan). At 24 hours after the last ovalbumin challenge, the airway hyperresponsiveness of the mice was measured, and after 48 hours, the mice were anesthetized by intraperitoneal administration of Pentobarbital (50 mg/kg, Entobal, Hanil, Korea). Then, blood was collected through the saphenous vein, and the mice were subjected to tracheostomy. Next, each of the mice was subjected to bronchoalveolar lavage with a total of 1.4 ml of PBS to collect an analytical sample. […] The drug and the sample were administered orally during a period from day 18 to day 23 after the first ovalbumin […] (FIG. 1). Seven mice were used per group.
To measure airway hyperresponsiveness that is one of the major features of asthma, one chamber plethysmography (All Medicus, Korea) was used. The degree of airway resistance was evaluated by measuring enhanced pause (Pehn). For measurement of Pehn, the basis value was measured in a normal breathing state, and then PBS was inhaled for 3 minutes using an ultrasonic nebulizer, after which the Pehn value was measured for 3 minutes.

[2] = tested on: ovalbumin-induced asthma Balb/c mice; experiment: Inflammatory cell count in bronchoalveolar lavage fluid, ovalbumin-induced asthma model; assay type: in vivo, mouse; conditions: BALF
Protocol: as §1
An increase in the number of eosinophils is one of the major features of asthma. Thus, in order to measure the number of eosinophils, the following experiment was performed. The bronchoalveolar lavage fluid from each mouse was stained with trypan blue immediately after collection, and the number of total cells (excluding dead cells) was calculated using a hemocytometer.

[3] = tested on: interleukins (IL-4, IL-5 and IL-13); experiment: Th2 cytokines in bronchoalveolar lavage fluid (ELISA), ovalbumin-induced asthma model; assay type: in vivo, mouse; conditions: BALF
Protocol: as §1
The production of interleukins (IL-4, IL-5 and IL-13) in the bronchoalveolar lavage fluid isolated from each mouse was measured using a commercially available enzyme-linked immunosorbent assay (ELISA) kit (R&D System, USA). The analysis of each cytokine was performed according to the manufacturer's instruction, and the absorbance at 450 nm was measured using an ELISA reader (Molecular Devices, USA).

[4] = tested on: serum IgE and ovalbumin-specific IgE; experiment: Serum IgE and ovalbumin-specific IgE (ELISA), ovalbumin-induced asthma model; assay type: in vivo, mouse
Protocol: as §1
The blood collected through the saphenous vein was incubated at room temperature for 30 minutes, and then centrifuged (3000 rpm, 15 min) to obtain serum. For measurement of serum IgE and ovalbumin-specific IgE, ELISA was used. IgE was measured using commercially available IgE (Biolegend Ins., USA). For measurement of ovalbumin-specific IgE, in a 96-well flat bottom ELISA plate, ovalbumin was dissolved in 0.1 M NaHCO3 buffer (pH 8.3) at a concentration of 20 μg/mL and incubated at 4° C. for 16 hours. Next, PBS containing 1% bovine serum albumin (BSA) was added to suppress nonspecific reactions. The serum sample was diluted at 1:400, allowed to react at room temperature for 2 hours, and then washed with PBS containing 0.05% Tween 20. Horseradish peroxidase (HRP)-conjugated goat […] polyclonal A was diluted 4000-fold and allowed to react at room temperature for 1 hour, and then color development was performed using 3,3′5,5′-tetramethylbenzidine substrate.

[5] = tested on: ovalbumin-induced asthma Balb/c mice; experiment: Histopathological examination of lung tissue (H&E, PAS staining), ovalbumin-induced asthma model; assay type: in vivo, mouse
EL-4 cells = conditions: mouse, 24 h
Protocol: EL-4 cells that are mouse T lymphoma cells were suspended in 10% fetal bovine serum-containing RPMI medium (Gibco) at a concentration of 5×10^4 cells/ml, and 100 μl of the cell suspension was seeded into each well of a 96-well plate and cultured for 12 hours. Next, the cell culture was treated with monoacetyldiacylglycerol (MADG) compounds at the concentrations shown in Table 1 below, and was then additionally cultured for 24 hours. Next, according to the instruction provided in a CCK-8 kit (Dojindo) capable of counting cells, 10 μl of CCK-8 solution was added to the kit and allowed to react for 30 minutes to 4 hours, and then the absorbance (OD) at 570 nm was measured. In equation 1, the negative control group indicates a cell culture treated with 0.2% DMSO. […] Cell viability (%)=[(OD 570 nm value of MADC-treated group)/(OD 570 nm value of negative control group)]×100 Equation 1

sepsis animal model = conditions: cecal-ligation-puncture sepsis model; cited from earlier work

## CCCCC/C=C\C/C=C\CCCCCCCC(=O)OC(COC(C)=O)COC(=O)CCCCCCCCCCCCCCC (stereo not drawn) [EC-18, 1-palmitoyl-2-linoleoyl-3-acetylglycerol]
[1]; methacholine 0 mg/mL, 30 mg/kg oral
  Pehn value: 0.465 ± 0.08
[1]; methacholine 0 mg/mL, 60 mg/kg oral
  Pehn value: 0.436 ± 0.08
[1]; methacholine 12.5 mg/mL, 30 mg/kg oral
  Pehn value: 1.179 ± 0.49
[1]; methacholine 12.5 mg/mL, 60 mg/kg oral
  Pehn value: 0.778 ± 0.15
[1]; methacholine 25 mg/mL, 30 mg/kg oral
  Pehn value: 2.914 ± 0.67
[1]; methacholine 25 mg/mL, 60 mg/kg oral
  Pehn value: 2.436 ± 0.68
[1]; methacholine 50 mg/mL, 30 mg/kg oral
  Pehn value: 4.098 ± 0.78
[1]; methacholine 50 mg/mL, 60 mg/kg oral
  Pehn value: 3.887 ± 0.59
[1]; montelukast 30 mg/kg, EC-18 30 mg/kg and 60 mg/kg
  airway hyperresponsiveness / Pehn value compared to asthma-induced group: significantly decreased
[2]; 30 mg/kg oral
  Inflammatory cell number, Eosinophils: 93 ± 16.4* 10^5 per mouse
  Inflammatory cell number, Lymphocytes: 16 ± 8.7 10^5 per mouse
  Inflammatory cell number, Macrophages: 82 ± 25.5* 10^5 per mouse
  Inflammatory cell number, Neutrophils: 15 ± 8.4 10^5 per mouse
  Inflammatory cell number, Total cells: 221 ± 33.5* 10^5 per mouse
[2]; 60 mg/kg oral
  Inflammatory cell number, Eosinophils: 112 ± 18.7* 10^5 per mouse
  Inflammatory cell number, Lymphocytes: 13 ± 8.7 10^5 per mouse
  Inflammatory cell number, Macrophages: 113 ± 27.4 10^5 per mouse
  Inflammatory cell number, Neutrophils: 12 ± 6.7 10^5 per mouse
  Inflammatory cell number, Total cells: 253 ± 12.8* 10^5 per mouse
[2]; groups administered with EC-18
  number of eosinophils compared to asthma-induced group: decrease
  number of total inflammatory cells compared to asthma-induced group: significant decrease
[3]
  secretion of IL-4 compared to asthma-induced group: significantly decreased
  secretion of IL-5 compared to asthma-induced group: significantly decreased
  secretion of IL-13 compared to asthma-induced group: significantly decreased
[3]; 30 mg/kg oral
  Th2 cytokines, IL-4: 17.89 ± 3.46 pg/mL
  Th2 cytokines, IL-5: 24.12 ± 3.07 pg/mL
  Th2 cytokines, IL-13: 97.27 ± 12.80 pg/mL
[3]; 60 mg/kg oral
  Th2 cytokines, IL-4: 17.09 ± 3.08 pg/mL
  Th2 cytokines, IL-5: 25.02 ± 2.91 pg/mL
  Th2 cytokines, IL-13: 81.10 ± 20.46 pg/mL
[4]
  ovalbumin-specific IgE compared to asthma-induced group: significantly decreased
  serum IgE compared to asthma-induced group: significantly decreased
[4]; 30 mg/kg oral
  IgE: 2.35 ± 0.38 µg/mL
  OVA specific IgE: 295.36 ± 77.93 µg/mL
[4]; 60 mg/kg oral
  IgE: 2.27 ± 0.46 µg/mL
  OVA specific IgE: 287.79 ± 69.53 µg/mL
[5]; H&E staining
  infiltration of inflammatory cells around the bronchi and blood vessels: decrease
[5]; PAS staining
  mucus secretion from goblet cells of the bronchial epithelium: significantly decreased
EL-4 cells; 5 μg/ml
  EL-4 cell viability (%, mean ± SD): 101.94 ± 1.47%
EL-4 cells; 10 μg/ml
  EL-4 cell viability (%, mean ± SD): 97.54 ± 8.05%
EL-4 cells; 20 μg/ml
  EL-4 cell viability (%, mean ± SD): 91.82 ± 3.48%
EL-4 cells; 50 μg/ml
  EL-4 cell viability (%, mean ± SD): 92.67 ± 3.43%
EL-4 cells; 100 μg/ml
  EL-4 cell viability (%, mean ± SD): 95.29 ± 2.89%
EL-4 cells; 200 μg/ml
  EL-4 cell viability (%, mean ± SD): 99.74 ± 6.14%
Sepsis animal model
  survivability ratio of animals: Increases

Source: patent US11135193B2, “Composition containing monoacetyldiacylglycerol compound as active ingredient for preventing or treating asthma” (Enzychem Lifesciences Corporation, priority 2013, dated 2021)
